From patent US8211929B2, “Pyrimidine derivatives as kinase modulators and method of use” (Exelixis, Inc., priority 2004, dated 2012)
pIC50: −log10 of the molar value. Read-outs that look alike come from different tables or passages of the source.

What was measured:
[1] = target: T1, (Homo sapiens, UniProt P08069); experiment: IGF1R kinase assay (LCCA), IGF 0P; assay type: biochemical
T1 construct: human IGF1R kinase domain residues M954-C1367; made in house; host or cells: baculovirus expression (insect cells)
Protocol: (§1) Kinase activity and compound inhibition are investigated using one or more of the three assay formats described below. The ATP concentrations for each assay are selected to be close to the Michaelis-Menten constant (KM) for each individual kinase. Dose-response experiments are performed at 10 different inhibitor concentrations in a 384-well plate format. […] Y=Min+(Max−Min)/(1+(X/IC50)^H) Equation (2)
(§2) IGF1R kinase biochemical activity was assessed using a Luciferase-Coupled Chemiluminescent Kinase assay (LCCA) format. Kinase activity was measured as the percent ATP remaining following the kinase reaction. Remaining ATP was detected by luciferase-luciferin-coupled chemiluminescence. Specifically, the reaction was initiated by mixing test compounds, 3 μM ATP, 4 μM poly EY peptide and 4 nM IGF1R (baculovirus expressed human IGF1R kinase domain residues M954-C1367) in a 20 uL assay buffer (20 mM Tris-HCL pH7.5, 10 mM MgCl2, 0.02% Triton X-100, 1 mM DTT, 2 mM MnCl2). The mixture is incubated at ambient temperature for 2 hours after which 20 uL luciferase-luciferin mix is added and the chemiluminescent signal read using a Wallac Victor^2 reader.

IGF 3P = target: T2, IGF 3P (Homo sapiens, UniProt P08069); experiment: IGF1R kinase assay (LCCA), IGF 3P; assay type: biochemical
T2 construct: human IGF1R kinase domain residues M954-C1367; made in house; host or cells: baculovirus expression (insect cells)
Protocol: as §1, §2

[2] = IGF1R kinase LCCA assay, IGF 0P
[3] = IGF1R kinase LCCA assay, IGF 3P

T2 sequence (P08069 954-1367): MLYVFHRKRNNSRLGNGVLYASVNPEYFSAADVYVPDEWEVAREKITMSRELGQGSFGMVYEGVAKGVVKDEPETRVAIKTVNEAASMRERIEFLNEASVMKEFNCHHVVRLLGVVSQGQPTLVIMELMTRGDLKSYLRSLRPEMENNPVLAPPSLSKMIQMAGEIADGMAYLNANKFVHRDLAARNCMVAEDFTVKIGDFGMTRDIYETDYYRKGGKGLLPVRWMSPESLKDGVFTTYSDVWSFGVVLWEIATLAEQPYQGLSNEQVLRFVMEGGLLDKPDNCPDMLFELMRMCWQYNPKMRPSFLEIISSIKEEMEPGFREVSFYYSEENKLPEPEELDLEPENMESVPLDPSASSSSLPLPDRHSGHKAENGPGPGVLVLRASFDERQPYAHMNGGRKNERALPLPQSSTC
T1 sequence (P08069 954-1367): as above

SMILES	pIC50 ([1]; IGF1R kinase LCCA assay)	pIC50 (IGF 3P; IGF1R kinase LCCA assay)	other results
Cc1cc(Nc2cc(C3CC3)n[nH]2)nc(Nc2ccc3c(c2)CN(C(=O)OC(C)(C)C)CC3)n1 [Example 565]	5.30 to 6.30	5.30 to 6.30	–
Nc1ncnc2c1c(-c1cccc(OCc3ccccc3)c1)cn2C1CCCCC1 [Example 350]	< 5.30	5.30 to 6.30	–
CC(C)c1cc(CNc2nc(Nc3cc(C4CC4)n[nH]3)cc(N3CCN(CCO)CC3)n2)on1 [Example 663, 2-(4-{6-[(3-cyclopropyl-1H-pyrazol-5-yl)amino]-2-({[3-(1-methylethyl)isoxazol-5-yl]methyl}amino)pyrimidin-4-yl}piperazin-1-yl)ethanol]	–	–	pIC50 [1]: 6.30 to 7.30; pIC50 (IGF 3P): > 7.30
Cc1cc(Nc2cc(C3CC3)n[nH]2)nc(Nc2ccc(N(C)C)cc2)n1 [Example 213]	5.30 to 6.30	5.30 to 6.30	–
Cc1cc(Nc2cc(C3CC3)[nH]n2)nc(NCc2cc(-c3ccncc3)no2)n1 [Example 620, N^4-(5-cyclopropyl-1H-pyrazol-3-yl)-6-methyl-N^2-[(3-pyridin-4-ylisoxazol-5-yl)methyl]pyrimidine-2,4-diamine]	–	–	pIC50 [1]: 6.30 to 7.30; pIC50 (IGF 3P): 6.30 to 7.30
Brc1cnc(NCc2cc(-c3ccccc3)no2)nc1Nc1cc(-c2ccccc2)n[nH]1 [Example 323]	< 5.30	< 5.30	–
O=[N+]([O-])c1cnc(Nc2ccc(Cl)cc2Cl)nc1Nc1cc(C2CC2)n[nH]1 [Example 331]	< 5.30	< 5.30	–
CCN(CC)CCNC(=O)CCc1ccc(Nc2ncc(Br)c(Nc3cc(C)on3)n2)cc1 [Example 58]	–	–	pIC50 [1, 2]: 5.30 to 6.30; pIC50 (IGF 3P; [3]): > 7.30
CN(C)c1ccc(CNc2ncc(Br)c(Nc3cc(C4CC4)n[nH]3)n2)cc1 [Example 193]	< 5.30	5.30 to 6.30	–
Cc1cc(Nc2cc(C3CC3)n[nH]2)nc(NCc2nc(C(=O)NCCc3cccc(Cl)c3)cs2)n1 [Example 570]	5.30 to 6.30	5.30 to 6.30	–
Cc1cc(Nc2ccccc2)nc(Nc2ccc(CCC(=O)NCCN3CCCC3)cc2)n1 [Example 309]	< 5.30	< 5.30	–
Cc1cc(CNc2nc(Nc3cc(C4CC4)n[nH]3)cc(N3CCN(C)CC3)n2)on1 [Example 602, N^4-(3-cyclopropyl-1H-pyrazol-5-yl)-N^2-[(3-methylisoxazol-5-yl)methyl]-6-(4-methylpiperazin-1-yl)pyrimidine-2,4-diamine]	–	–	pIC50 [1]: 6.30 to 7.30; pIC50 (IGF 3P): > 7.30
Clc1cccc(CCNc2ncc(Br)c(Nc3cc(C4CC4)n[nH]3)n2)c1 [Example 226]	< 5.30	5.30 to 6.30	–
CCN(CC)CCCNC(=O)c1ccc(Nc2ncc(C)c(Nc3cc(C4CC4)n[nH]3)n2)cc1 [Example 181]	5.30 to 6.30	5.30 to 6.30	–
c1ncc(-c2cc(CNc3nc(Nc4cc(C5CC5)n[nH]4)cc(N4CCOCC4)n3)on2)cn1 [Example 643, N^4-(3-cyclopropyl-1H-pyrazol-5-yl)-6-morpholin-4-yl-N^2-[(3-pyrimidin-5-ylisoxazol-5-yl)methyl]pyrimidine-2,4-diamine]	–	–	pIC50 [1]: 6.30 to 7.30; pIC50 (IGF 3P): 6.30 to 7.30
Clc1ccccc1Nc1ncc(Br)c(Nc2n[nH]c3ccccc23)n1 [Example 267]	< 5.30	< 5.30	–
Cc1cc(N2CCN(C)CC2)nc(N2CCN(C)CC2)n1 [Example 308]	< 5.30	< 5.30	–
CN1CCN(c2ccc(CNc3ncc(Br)c(Nc4cc(C5CC5)n[nH]4)n3)cc2)CC1 [Example 186]	5.30 to 6.30	5.30 to 6.30	–
CC(C)(C)OC(=O)N1CCC(CNc2ncc(Br)c(Nc3cc(C4CC4)n[nH]3)n2)CC1 [Example 315]	< 5.30	< 5.30	–
Clc1cc(Cl)cc(Nc2ncc(Br)c(Nc3cc(C4CC4)n[nH]3)n2)c1 [Example 303]	< 5.30	< 5.30	–
CC(=O)NCC=CCn1cc(-c2cccc(OCc3ccccc3)c2)c2c(N)ncnc21 [Example 345]	–	–	pIC50 [1, 2]: < 5.30; pIC50 (IGF 3P; [3]): 5.30 to 6.30
c1ccc(-c2cc(CNc3nc(NCCN4CCCCC4)cc(Nc4cc(C5CC5)[nH]n4)n3)on2)cc1 [Example 516]	6.30 to 7.30	> 7.30	–
Cc1cc(Nc2cc(C3CC3)n[nH]2)nc(Nc2ccc(C3CCNCC3)cc2)n1 [Example 553]	5.30 to 6.30	5.30 to 6.30	–
Cc1cc(Nc2cc(OCCN3CCOCC3)nc(NCc3cc(-c4ccccc4)no3)n2)[nH]n1 [Example 619, N^4-(3-methyl-1H-pyrazol-5-yl)-6-[(2-morpholin-4-ylethyl)oxy]-N^2-[(3-phenylisoxazol-5-yl)methy]pyrimidine-2,4-diamine]	–	–	pIC50 [1]: 6.30 to 7.30; pIC50 (IGF 3P): 6.30 to 7.30
Cc1cc(Nc2cc(C3CC3)n[nH]2)nc(Nc2ccc3c(c2)CC(N)C3)n1 (centres unmarked) [Example 546]	5.30 to 6.30	6.30 to 7.30	–
